Data reported in patent US20230295200A1 (REGENTS OF THE UNIVERSITY OF MICHIGAN, priority 2022, published 2023).

Assays:
STAT5A = target: T1, STAT5A (Homo sapiens, UniProt P42229); test: Fluorescence polarization (FP) binding assay, STAT5A; details: FP competition, 5 nM fluorescein-labeled tracer, 200 nM protein, PBS pH7.4
T1 sequence (P42229 1-794): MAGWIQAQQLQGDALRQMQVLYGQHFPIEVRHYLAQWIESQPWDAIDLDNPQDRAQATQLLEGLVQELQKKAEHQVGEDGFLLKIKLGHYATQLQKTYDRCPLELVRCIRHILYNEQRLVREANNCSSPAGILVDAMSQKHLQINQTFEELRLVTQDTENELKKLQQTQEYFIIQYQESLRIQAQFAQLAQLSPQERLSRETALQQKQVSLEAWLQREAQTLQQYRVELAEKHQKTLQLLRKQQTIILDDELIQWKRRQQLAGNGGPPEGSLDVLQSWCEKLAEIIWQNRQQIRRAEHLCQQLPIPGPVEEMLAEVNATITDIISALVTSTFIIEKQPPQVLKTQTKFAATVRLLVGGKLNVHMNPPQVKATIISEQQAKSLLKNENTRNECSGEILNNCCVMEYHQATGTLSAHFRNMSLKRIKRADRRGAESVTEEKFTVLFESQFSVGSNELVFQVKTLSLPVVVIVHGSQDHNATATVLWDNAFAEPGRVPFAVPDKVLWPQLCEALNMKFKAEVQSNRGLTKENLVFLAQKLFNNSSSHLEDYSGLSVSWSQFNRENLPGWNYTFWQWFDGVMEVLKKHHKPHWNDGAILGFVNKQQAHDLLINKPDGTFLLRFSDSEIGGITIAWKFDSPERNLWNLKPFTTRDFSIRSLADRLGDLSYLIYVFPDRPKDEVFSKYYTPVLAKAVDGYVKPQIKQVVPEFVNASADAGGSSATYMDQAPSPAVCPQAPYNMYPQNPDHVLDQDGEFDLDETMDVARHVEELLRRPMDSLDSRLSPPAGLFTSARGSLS
Experimental: Evaluation of the activity of the inhibitors may be accomplished by fluorescence polarization (FP) experiments. A representative general protocol is the following:
Fluorescence polarization (FP) experiments are performed in black round-bottom plates using the CLARIOstar microplate reader. To each well, fluorescein-labeled tracer and STAT5 or STAT6 protein are added in assay buffer. […] The inhibition constants are determined as the concentration of the STAT5 or STAT6 at which 50% of the ligand is bound.
Fluorescence polarization (FP) experiments were performed in 96-well, black round-bottom plates (Microfluor 2, Fisher Scientific) using the CLARIOstar microplate reader (BMG Labtech). To each well, 5 nM of fluoresceinlabeled tracer and 200 nM of STAT5 and/or STAT6 protein were added to a final volume of 100 μl in the assay buffer (PBS pH7.4+0.01% BGG+0.01% Tween-20, 2 mM DTT). The plate was mixed on a shaker for 15 m and incubated at room temperature for 1 h to reach equilibrium. […] All experimental data were analyzed using Prism 8.0 software (GraphPad Software), and the inhibition constants were determined by nonlinear curve fitting as the concentration of the STAT5 and/or STAT6 at which 50% of the ligand is bound.

STAT6 protein = target: T2, STAT6 protein (Homo sapiens, UniProt P42226); test: Fluorescence polarization (FP) binding assay, STAT6; details: FP competition, 5 nM fluorescein-labeled tracer, 200 nM protein, PBS pH7.4; read-out: Binding STAT6
T2 sequence (P42226 1-847): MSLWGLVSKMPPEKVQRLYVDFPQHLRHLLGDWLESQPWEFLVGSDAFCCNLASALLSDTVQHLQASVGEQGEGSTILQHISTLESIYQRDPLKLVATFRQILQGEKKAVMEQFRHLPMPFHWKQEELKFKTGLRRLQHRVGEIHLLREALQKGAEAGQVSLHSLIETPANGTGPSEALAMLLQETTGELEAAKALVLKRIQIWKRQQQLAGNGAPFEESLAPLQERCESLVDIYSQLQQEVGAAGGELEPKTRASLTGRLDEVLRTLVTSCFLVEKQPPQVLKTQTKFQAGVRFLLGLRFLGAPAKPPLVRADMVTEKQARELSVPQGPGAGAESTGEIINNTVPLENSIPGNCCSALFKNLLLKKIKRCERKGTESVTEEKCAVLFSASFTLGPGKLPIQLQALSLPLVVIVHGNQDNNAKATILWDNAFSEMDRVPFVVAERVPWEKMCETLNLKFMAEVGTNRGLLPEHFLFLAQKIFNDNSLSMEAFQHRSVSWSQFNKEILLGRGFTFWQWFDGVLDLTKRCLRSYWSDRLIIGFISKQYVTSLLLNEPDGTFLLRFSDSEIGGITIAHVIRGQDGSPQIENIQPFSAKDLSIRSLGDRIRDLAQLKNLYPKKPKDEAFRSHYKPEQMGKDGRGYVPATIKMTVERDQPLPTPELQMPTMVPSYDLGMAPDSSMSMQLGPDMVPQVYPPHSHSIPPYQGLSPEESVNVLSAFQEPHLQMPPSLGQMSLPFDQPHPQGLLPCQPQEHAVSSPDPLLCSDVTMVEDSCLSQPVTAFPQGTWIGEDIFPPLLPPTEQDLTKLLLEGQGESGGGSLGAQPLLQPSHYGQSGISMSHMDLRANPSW
In short: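 Tracer (fluorescein-labeled, 5 nM) was mixed with 200 nM STAT5 and/or STAT6 in PBS pH 7.4 plus 0.01% BGG, 0.01% Tween-20, 2 mM DTT. After 15 min shaking and 1 h at room temperature to equilibrium, polarization was measured and constants derived by nonlinear fitting.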

Row | SMILES | Ki (STAT5A) [µM] | Ki (STAT6 protein) [µM]
1 | CC(C)(C)[C@H](NC(=O)c1cc2cc(C(F)(F)P(=O)(O)O)ccc2s1)C(=O)N1CCC[C@H]1C(=O)Nc1ncc(C2CCCCC2)s1 [Compound 254, ((2-(((S)-1-((S)-2-((5-cyclohexylthiazol-2-yl)carbamoyl)pyrrolidin-1-yl)-3,3-dimethyl-1-oxobutan-2-yl)carbamoyl)benzo[b]thiophen-5-yl)difluoromethyl)phosphonic acid] | 1 to 10 | –
2 | CC(C)(C)[C@H](NC(=O)c1cc2cc(C(F)(F)P(=O)(O)O)ccc2s1)C(=O)N1Cc2ccccc2C[C@H]1C(=O)N1CCOC(c2cc(Cl)cc(Cl)c2)C1 (stereo partly drawn) [Compound 242, ((2-(((2S)-1-((3S)-3-(2-(3,5-dichlorophenyl)morpholine-4-carbonyl)-3,4-dihydroisoquinolin-2(1H)-yl)-3,3-dimethyl-1-oxobutan-2-yl)carbamoyl)benzo[b]thiophen-5-yl)difluoromethyl)phosphonic acid] | – | 0.1 to 1
3 | CC(C)(C)[C@H](NC(=O)c1cc2cc(C(F)(F)P(=O)(O)O)ccc2s1)C(=O)N1Cc2ccccc2C[C@H]1C(=O)N1CCOC(c2cc(F)c(Cl)cc2Cl)C1 (stereo partly drawn) [Compound 243, ((2-(((2S)-1-((3S)-3-(2-(2,4-dichloro-5-fluorophenyl)morpholine-4-carbonyl)-3,4-dihydroisoquinolin-2(1H)-yl)-3,3-dimethyl-1-oxobutan-2-yl)carbamoyl)benzo[b]thiophen-5-yl)difluoromethyl)phosphonic acid] | – | 0.1 to 1
4 | CC(C)(C)c1ccc(C[C@H](NC(=O)c2cc3cc(C(F)(F)P(=O)(O)O)ccc3s2)C(=O)N2CCC[C@H]2C(=O)N2CCO[C@H](c3ccccc3)C2)cc1 [Compound 277, ((2-(((S)-3-(4-(tert-butyl)phenyl)-1-oxo-1-((S)-2-((R)-2-phenylmorpholine-4-carbonyl)pyrrolidin-1-yl)propan-2-yl)carbamoyl)benzo[b]thiophen-5-yl)difluoromethyl)phosphonic acid] | – | < 0.1
5 | CC(C)(C)[C@H](NC(=O)c1cc2cc(C(F)(F)P(=O)(O)O)ccc2s1)C(=O)N1C[C@H](Oc2ccccc2)C[C@H]1C(=O)N1CCO[C@H](c2ccccc2)C1 [Compound 299, ((2-(((S)-3,3-dimethyl-1-oxo-1-((2S,4R)-4-phenoxy-2-((R)-2-phenylmorpholine-4-carbonyl)pyrrolidin-1-yl)butan-2-yl)carbamoyl)benzo[b]thiophen-5-yl)difluoromethyl)phosphonic acid] | – | 0.1 to 1
6 | O=C(N[C@@H](Cc1cccs1)C(=O)N1CCC[C@H]1C(=O)N1CCO[C@H](c2ccccc2)C1)c1cc2cc(C(F)(F)P(=O)(O)O)ccc2s1 [Compound 287, (difluoro(2-(((S)-1-oxo-1-((S)-2-((R)-2-phenylmorpholine-4-carbonyl)pyrrolidin-1-yl)-3-(thiophen-2-yl)propan-2-yl)carbamoyl)benzo[b]thiophen-5-yl)methyl)phosphonic acid] | – | 0.1 to 1
7 | CC(C)(C)[C@H](NC(=O)c1cc2cc(C(F)(F)P(=O)(O)O)ccc2s1)C(=O)N1Cc2ccccc2C[C@H]1C(=O)N1CCS(=O)(=O)[C@H](c2ccccc2)C1 [Compound 224, ((2-(((S)-1-((S)-3-((R)-1,1-dioxido-2-phenylthiomorpholine-4-carbonyl)-3,4-dihydroisoquinolin-2(1H)-yl)-3,3-dimethyl-1-oxobutan-2-yl)carbamoyl)benzo[b]thiophen-5-yl)difluoromethyl)phosphonic acid] | – | < 0.1
8 | CC1CN(C(=O)[C@@H]2Cc3ccccc3CN2C(=O)[C@@H](NC(=O)c2cc3cc(C(F)(F)P(=O)(O)O)ccc3s2)C(C)(C)C)CC(c2ccccc2)O1 (stereo partly drawn) [Compound 226, ((2-(((2S)-3,3-dimethyl-1-((3S)-3-(2-methyl-6-phenylmorpholine-4-carbonyl)-3,4-dihydroisoquinolin-2(1H)-yl)-1-oxobutan-2-yl)carbamoyl)benzo[b]thiophen-5-yl)difluoromethyl)phosphonic acid] | – | 0.1 to 1

Now from value to compound:

Row | Ki (STAT5A) [µM] | Ki (STAT6 protein) [µM] | SMILES
9 | – | > 10 | CC(=O)N1CC[C@H]2CC[C@@H](C(=O)N3CCc4cccc(F)c4C3)N2C(=O)[C@@H](NC(=O)c2cc3cc(C(F)(F)P(=O)(O)O)ccc3[nH]2)C1 [Compound 356, ((2-(((5S,8S,10aR)-3-acetyl-8-(8-fluoro-1,2,3,4-tetrahydroisoquinoline-2-carbonyl)-6-oxodecahydropyrrolo[1,2-a][1,5]diazocin-5-yl)carbamoyl)-1H-indol-5-yl)difluoromethyl)phosphonic acid]
10 | – | > 10 | CCN(C(=O)[C@@H]1CC[C@@H]2CCN(C(C)=O)C[C@H](NC(=O)c3cc4cc(C(F)(F)P(=O)(O)O)ccc4s3)C(=O)N21)c1ccc(Cl)cc1 [Compound 388, ((2-(((5S,8S,10aR)-3-acetyl-8-((4-chlorophenyl)(ethyl)carbamoyl)-6-oxodecahydropyrrolo[1,2-a][1,5]diazocin-5-yl)carbamoyl)benzo[b]thiophen-5-yl)difluoromethyl)phosphonic acid]
11 | – | > 10 | CC(=O)N1CC[C@H]2CC[C@@H](C(=O)N3CCC4(CCCCC4)C3)N2C(=O)[C@@H](NC(=O)c2cc3cc(C(F)(F)P(=O)(O)O)ccc3s2)C1 [Compound 383, ((2-(((5,8S,10aR)-3-acetyl-6-oxo-8-(2-azaspiro[4.5]decane-2-carbonyl)decahydropyrrolo[1,2-a][1,5]diazocin-5-yl)carbamoyl)benzo[b]thiophen-5-yl)difluoromethyl)phosphonic acid]
12 | – | > 10 | CC(=O)N1CC[C@H]2CC[C@@H](C(=O)N3CCc4cc(Cl)ccc4C3)N2C(=O)[C@@H](NC(=O)c2cc3cc(C(F)(F)P(=O)(O)O)ccc3[nH]2)C1 [Compound 366, ((2-(((5S,8S,10aR)-3-acetyl-8-(6-chloro-1,2,3,4-tetrahydroisoquinoline-2-carbonyl)-6-oxodecahydropyrrolo[1,2-a][1,5]diazocin-5-yl)carbamoyl)-1H-indol-5-yl)difluoromethyl)phosphonic acid]
13 | – | > 10 | CC(=O)N1CC[C@H]2CC[C@@H](C(=O)N3CCCOCC3)N2C(=O)[C@@H](NC(=O)c2cc3cc(C(F)(F)P(=O)(O)O)ccc3[nH]2)C1 [Compound 368, ((2-(((5S,8S,10aR)-3-acetyl-8-(1,4-oxazepane-4-carbonyl)-6-oxodecahydropyrrolo[1,2-a][1,5]diazocin-5-yl)carbamoyl)-1H-indol-5-yl)difluoromethyl)phosphonic acid]
14 | – | 0.1 to 1 | CCCC[C@H](NC(=O)c1cc2cc(C(F)(F)P(=O)(O)O)ccc2s1)C(=O)N1CCC[C@H]1C(=O)N1CCO[C@H](c2ccccc2)C1 [Compound 272, (difluoro(2-(((S)-1-oxo-1-((S)-2-((R)-2-phenylmorpholine-4-carbonyl)pyrrolidin-1-yl)hexan-2-yl)carbamoyl)benzo[b]thiophen-5-yl)methyl)phosphonic acid]
